Converted amounts (≈) assume the structure as drawn. Blank lines part the entries; values can stand above or below the compound they belong to.
How the values were obtained:
Staphylococcus aureus = assay: MIC, CLSI broth microdilution in CAMHB; type: cell-based; conditions: ATCC29213, S. aureus (ATCC 29213)
Experimental: (§1) The bacterial strains tested included CLSI and NCTC reference and quality control (QC) strains from the following organism groups: Acinetobacter baumannii, Enterococcus faecalis, Escherichia coli, Klebsiella pneumoniae, Pseudomonas aeruginosa, and Staphylococcus aureus. Some strains contained molecularly characterized β-lactamase genes including carbapenemase (KPC-2) and extended-spectrum β-lactamase (SHV-18) genes.
(§2) Isolates were tested for antimicrobial susceptibility using broth microdilution methodology according to CLSI M07 (2018) and M100 (2023) guidelines. Frozen-form, 96-well MIC panels were produced. The testing medium was cation-adjusted Mueller-Hinton broth (CAMHB). Single MIC values were measured for 8 test compounds against each of the 9 strains tested. Additional MIC values were generated for levofloxacin (comparator agent) against several of the QC strains.
(§3) Compound stock solutions were prepared and allowed to mix overnight as needed. The pH of each stock solution was checked and adjusted as necessary until a minimum pH of 5.0 was achieved (pH range 5.0-7.0). Some compound stock solutions also required the addition of heat to assist in solubilization.
(§4) Current CLSI quality assurance practices were followed when performing the broth microdilution susceptibility testing. MIC values were validated by concurrently testing a control agent (levofloxacin) against CLSI-recommended QC strains including S. aureus ATCC 29213 (methicillin susceptible), E. coli ATCC 25922, Enterococcus faecalis ATCC 29212, and P. aeruginosa ATCC 27853. The initial inoculum density (target, 5×10^5 CFU/mL) during susceptibility testing was monitored by bacterial colony counts.

Klebsiella pneumoniae = assay: MIC, CLSI broth microdilution in CAMHB; type: cell-based
Experimental: as §1, §2, §3, §4

Pseudomonas aeruginosa = assay: MIC, CLSI broth microdilution in CAMHB; type: cell-based; conditions: ATCC27853, P. aeruginosa (ATCC 27853)
Experimental: as §1, §2, §3, §4

Enterococcus faecalis = assay: MIC, CLSI broth microdilution in CAMHB; type: cell-based
Experimental: as §1, §2, §3, §4

Escherichia coli = assay: MIC, CLSI broth microdilution in CAMHB; type: cell-based
Experimental: as §1, §2, §3, §4

Acinetobacter baumannii = assay: MIC, CLSI broth microdilution in CAMHB; type: cell-based; conditions: NCTC13304, A. baumannii (NCTC 13304)
Experimental: as §1, §2, §3, §4

[1] = tested on: Enterococcus faecalis EF19433; assay: MBC, spot plating after 24 h in MH broth; conditions: E = Enterococcus faecalis EF19433
[2] = tested on: Staphylococcus aureus ATCC 29213; assay: MBC, spot plating after 24 h in MH broth; conditions: A = Staphylococcus aureus 29213
[3] = tested on: Klebsiella pneumoniae KL1; assay: MBC, spot plating after 24 h in MH broth; conditions: F = Klebisella pneumoniae KL1
Escherichia coli EC25922 [4] = assay: MBC, spot plating after 24 h in MH broth; conditions: H = Escherichia coli EC25922
[5] = tested on: Staphylococcus aureus MR1; assay: MBC, spot plating after 24 h in MH broth; conditions: B = Staphylococcus aureus MR1
[6] = tested on: Staphylococcus aureus NRS384; assay: MBC, spot plating after 24 h in MH broth; conditions: C = Staphylococcus aureus NRS384
[7] = tested on: Enterococcus faecalis EF51299; assay: MBC, spot plating after 24 h in MH broth; conditions: D = Enterococcus faecalis EF51299
[8] = tested on: Pseudomonas aeruginosa 27853; assay: MBC, spot plating after 24 h in MH broth; conditions: G = Pseudomonas aeruginosa 27853
[9] = tested on: Staphylococcus aureus MR1; assay: MIC, broth microdilution in MH broth with resazurin; type: cell-based; conditions: Staphylococcus aureus, MR1, read-out: MIC Concentration
[10] = tested on: Klebsiella pneumoniae KL1; assay: as above; type: cell-based; conditions: Klebsiella pneumoniae, KL1, read-out: MIC Concentration
[11] = tested on: Enterococcus faecalis EF19433; assay: as above; type: cell-based; conditions: Enterococcus faecalis, EF19433, read-out: MIC Concentration
S. aureus NRS 384 = assay: Mouse Staphylococcus aureus-induced wound infection model, bacteria load in wound site; conditions: for Ig(CFU/wound site) 12 h p.i. / ΔIg(CFU/wound site) vs 12 h infection control / Ig(CFU/wound site) 24 h p.i. / ΔIg(CFU/wound site) vs 24 h infection control / Ig (CFU/wound site) / ΔIg(CFU/wound site) vs infection control: twice a day
[12] = tested on: Staphylococcus aureus ATCC 29213; assay: MIC, broth microdilution in MH broth with resazurin; type: cell-based; conditions: Staphylococcus aureus, ATCC29213, read-out: MIC Concentration
Escherichia coli EC25922 [13] = assay: as above; type: cell-based; conditions: Escherichia coli, EC25922, read-out: MIC Concentration
[14] = tested on: Pseudomonas aeruginosa 27853; assay: as above; type: cell-based; conditions: Pseudomonas aeruginosa, 27853, read-out: MIC Concentration
[15] = tested on: Staphylococcus aureus NRS384; assay: as above; type: cell-based; conditions: Staphylococcus aureus, NRS384, read-out: MIC Concentration
[16] = tested on: Staphylococcus aureus NRS384; assay: Murine wound infection model, in vivo antimicrobial efficacy (bacterial CFU/wound); conditions: Study 2 pilot; daily application; 24 hrs and 72 hrs post-seeding
[17] = 1 mg/ml, 10 μL/wound site, 10 μg/wound site, 12 h p.i.
[18] = 1 mg/ml, 10 μL/wound site, 10 μg/wound site, 24 h p.i.
[19] = Study II, 1 mg/ml, 10 μL/wound site
[20] = Study III, 48 h p.i., 1 mg/ml, 10 μL/wound site
[21] = Study III, 72 h p.i., 1 mg/ml, 10 μL/wound site
[22] = Study V, 0.2 mg/ml, 50 μL/wound site, 24 h p.i.
[23] = Study V, 0.2 mg/ml, 50 μL/wound site, 72 h p.i.

MIC (Staphylococcus aureus): 0.12 µg/mL (≈ 0.332 µM)
MIC (Klebsiella pneumoniae; ATCC700603, K. pneumoniae (ATCC 700603)): 0.5 µg/mL (≈ 1.38 µM)
MIC (Klebsiella pneumoniae; BAA1705, K. pneumoniae (ATCC BAA 1705)): > 8 µg/mL
MIC (Pseudomonas aeruginosa): 1 µg/mL (≈ 2.77 µM)
MIC (Enterococcus faecalis; ATCC29212, E. faecalis (ATCC 29212)): 1 µg/mL (≈ 2.77 µM)
MIC (Enterococcus faecalis; ATCC51299, E. faecalis (ATCC 51299)): 0.5 µg/mL (≈ 1.38 µM)
MIC (Escherichia coli; ATCC25922, E. coli (ATCC 25922)): 0.015 µg/mL (≈ 0.0415 µM)
MIC (Escherichia coli; ATCCBAA2452, E. coli (ATCC BAA-2452)): 0.03 µg/mL (≈ 0.083 µM)
MIC (Acinetobacter baumannii): 4 µg/mL (≈ 11.1 µM)
SMILES: C[C@H]1COc2c(N3CCN(C)CC3)c(F)cc3c(=O)c(C(=O)O)cn1c23 [levofloxacin]

SMILES: CN[C@H](CC(C)C)C(=O)N[C@H]1C(=O)N[C@@H](CC(N)=O)C(=O)N[C@H]2C(=O)N[C@H]3C(=O)N[C@H](C(=O)N[C@H](C(=O)O)c4cc(O)cc(O)c4-c4cc3ccc4O)[C@H](O)c3ccc(c(Cl)c3)Oc3cc2cc(c3O[C@@H]2O[C@H](CO)[C@@H](O)[C@H](O)[C@H]2O[C@H]2C[C@](C)(N)[C@H](O)[C@H](C)O2)Oc2ccc(cc2Cl)[C@H]1O [Van]
MBC Concentration [1]: 0.08 µM (≈ 0.116 µg/mL)
MBC Concentration [2]: 0.02 µM (≈ 0.029 µg/mL)
MBC Concentration [3]: 1.25 µM (≈ 1.81 µg/mL)
MBC Concentration (Escherichia coli EC25922 [4]): 0.31 µM (≈ 0.449 µg/mL)
MBC Concentration [5]: 0.02 µM (≈ 0.029 µg/mL)
MBC Concentration [6]: 0.02 µM (≈ 0.029 µg/mL)
MBC Concentration [7]: 0.04 µM (≈ 0.058 µg/mL)
MBC Concentration [8]: 2.50 µM (≈ 3.62 µg/mL)

SMILES: CN[C@H](CC(C)C)C(=O)N[C@H]1C(=O)N[C@@H](CC(N)=O)C(=O)N[C@H]2C(=O)N[C@H]3C(=O)N[C@H](C(=O)N[C@H](C(=O)O)c4cc(O)cc(O)c4-c4cc3ccc4O)[C@H](O)c3ccc(c(Cl)c3)Oc3cc2cc(c3O[C@@H]2O[C@H](CO)[C@@H](O)[C@H](O)[C@H]2O[C@H]2C[C@](C)(N)[C@H](O)[C@H](C)O2)Oc2ccc(cc2Cl)[C@H]1O [Vancomycin]
MIC [9]: 0.04 µM (≈ 0.058 µg/mL)
MIC [10]: 0.63 µM (≈ 0.913 µg/mL)
MIC [11]: 5 µM (≈ 7.25 µg/mL)
Ig(CFU/wound site) 12 h p.i. (S. aureus NRS 384; [17]): 8.02 ± 0.35 Ig(CFU/wound site)
ΔIg(CFU/wound site) vs 12 h infection control (S. aureus NRS 384; [17]): −0.57 ± 0.35 Ig(CFU/wound site)
Ig(CFU/wound site) 24 h p.i. (S. aureus NRS 384; [18]): 7.29 ± 0.32 Ig(CFU/wound site)
ΔIg(CFU/wound site) vs 24 h infection control (S. aureus NRS 384; [18]): −1.44 ± 0.32 Ig(CFU/wound site)
Ig(CFU/wound site) 12 h p.i. (S. aureus NRS 384; Study I, 10 μL/wound site): 8.47 ± 0.22 Ig(CFU/wound site)
Ig(CFU/wound site) 24 h p.i. (S. aureus NRS 384; Study I, 10 μL/wound site): 7.67 ± 0.60 Ig(CFU/wound site)
ΔIg(CFU/wound site) vs 12 h infection control (S. aureus NRS 384; Study I, 10 μL/wound site): −0.11 ± 0.22 Ig(CFU/wound site)
ΔIg(CFU/wound site) vs 24 h infection control (S. aureus NRS 384; Study I, 10 μL/wound site): −1.12 ± 0.60 Ig(CFU/wound site)
bacterial load decreased by, compared with 24 h infection control group (S. aureus NRS 384; Study I, after twice administrations): 1.12 Ig CFU/wound site
effect of a single dose at 12-hour post infection (S. aureus NRS 384; Study I, single dose at 10 μg): not manifest
Ig(CFU/wound site) 12 h p.i. (S. aureus NRS 384; [19]): 7.83 ± 0.44 Ig(CFU/wound site)
Ig(CFU/wound site) 24 h p.i. (S. aureus NRS 384; [19]): 7.50 ± 0.54 Ig(CFU/wound site)
ΔIg(CFU/wound site) vs 12 h infection control (S. aureus NRS 384; [19]): −0.76 ± 0.44 Ig(CFU/wound site)
ΔIg(CFU/wound site) vs 24 h infection control (S. aureus NRS 384; [19]): −1.36 ± 0.54 Ig(CFU/wound site)
Ig (CFU/wound site) (S. aureus NRS 384; Study III, 24 h p.i., 1 mg/ml, 10 μL/wound site, 10 μg/wound site, inoculum 2.50E+06 CFU/wound site): 7.67 ± 0.24 Ig (CFU/wound site)
ΔIg(CFU/wound site) vs infection control (S. aureus NRS 384; Study III, 24 h p.i., 1 mg/ml, 10 μL/wound site): −1.11 ± 0.24 Ig(CFU/wound site)
Ig (CFU/wound site) (S. aureus NRS 384; Study III, 24 h p.i., 1 mg/ml, 50 μL/wound site, 50 μg/wound site): 4.37 ± 0.26 Ig (CFU/wound site)
ΔIg(CFU/wound site) vs infection control (S. aureus NRS 384; Study III, 24 h p.i., 1 mg/ml, 50 μL/wound site): −4.40 ± 0.26 Ig(CFU/wound site)
Ig (CFU/wound site) (S. aureus NRS 384; [20]): 5.29 ± 0.77 Ig (CFU/wound site)
ΔIg(CFU/wound site) vs infection control (S. aureus NRS 384; [20]): −3.28 ± 0.77 Ig(CFU/wound site)
Ig (CFU/wound site) (S. aureus NRS 384; [21]): 5.12 ± 0.65 Ig (CFU/wound site)
ΔIg(CFU/wound site) vs infection control (S. aureus NRS 384; [21]): −2.83 ± 0.65 Ig(CFU/wound site)
Ig (CFU/wound site) (S. aureus NRS 384; [22]): 6.07 ± 0.52 Ig(CFU/wound site)
ΔIg(CFU/wound site) vs infection control (S. aureus NRS 384; [22]): −2.39 ± 0.52 Ig(CFU/wound site)
Ig (CFU/wound site) (S. aureus NRS 384; [23]): 5.05 ± 0.20 Ig(CFU/wound site)
ΔIg(CFU/wound site) vs infection control (S. aureus NRS 384; [23]): −3.22 ± 0.20 Ig(CFU/wound site)
MIC [12]: 0.04 µM (≈ 0.058 µg/mL)
MIC (Escherichia coli EC25922 [13]): 0.63 µM (≈ 0.913 µg/mL)
MIC [14]: 5 µM (≈ 7.25 µg/mL)
MIC [15]: 0.04 µM (≈ 0.058 µg/mL)
log reduction in wound S. aureus [16]: 1 log
